The values that follow come from article PMC11990924, “Inhibition of Tyrosinase and Melanogenesis by Carboxylic Acids: Mechanistic Insights and Safety Evaluation” (Molecules, 2025).

The term viability denotes a read-out of living cells in per cent, often relative to untreated cells. One may read the inhibition as how much of the control response was suppressed. By IC50 is commonly meant the concentration that inhibits the measured activity by half. What is called Ki is the dissociation constant of the complex between target and ligand, obtained from inhibition or displacement.

For data set [1], the target named is T1, tyrosinase (Agaricus bisporus, UniProt C7FF04).
T1 construct: purchased Sigma-Aldrich
T1 sequence (C7FF04 1-392 limits assumed): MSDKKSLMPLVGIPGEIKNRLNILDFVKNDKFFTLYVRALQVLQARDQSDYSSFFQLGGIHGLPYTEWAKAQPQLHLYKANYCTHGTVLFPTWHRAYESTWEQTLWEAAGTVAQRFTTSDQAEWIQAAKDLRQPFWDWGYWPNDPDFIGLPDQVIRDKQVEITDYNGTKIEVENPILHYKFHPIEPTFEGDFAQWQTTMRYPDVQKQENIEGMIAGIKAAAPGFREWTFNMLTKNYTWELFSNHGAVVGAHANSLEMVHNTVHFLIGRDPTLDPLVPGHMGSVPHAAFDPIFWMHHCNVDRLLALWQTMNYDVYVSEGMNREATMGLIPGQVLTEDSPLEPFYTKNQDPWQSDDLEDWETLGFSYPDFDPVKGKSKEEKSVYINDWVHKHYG
The data set can be described thus: Fluorescence spectra analysis of tyrosinase. The data set is classed as binding, mushroom. As to conditions: 6 mM; excitation 280 nm. The protocol:
Carboxylic acid solutions at various concentrations were mixed with PBS buffer and tyrosinase (final concentration of 60 U/mL) and then transferred to a black 96-well plate. Fluorescence analysis was conducted using a microplate reader (Infinite 200Pro, Tecan).

A short description of data set [2]: Cell viability of B16-F10 by MTT. The data set is classed as cell-based. The note with it: mouse, B16-F10 cells, 6 mM. The protocol:
B16-F10 cells were seeded in 96-well plates at a density of 1 × 10^5 cells/mL and cultured at 37 °C with 5% CO2 for 24 h. Subsequently, various concentrations of carboxylic acids were added, and the cells were further incubated for 24 h. Then, 6 μL of MTT (5 mg/mL) was added, and the cells were cultured for an additional 4 h. Afterward, 200 μL of DMSO was added to dissolve the formazan crystals by gently pipetting up and down. The absorbance at 570 nm (OD570) was measured using a microplate reader (Infinite 200Pro, Tecan), with deionized water serving as the control. The cell viability was calculated with Equation (2): (2) [(OD570 of sample)/OD570 of control]×100%

In the next data set the target is mushroom tyrosinase (Agaricus bisporus, UniProt C7FF04). The experiment in a line: Inhibition of mushroom tyrosinase activity (L-DOPA, OD475). It counts as biochemical. The note with it: read-out: tyrosinase inhibition rate. The protocol:
L-DOPA solution (5 mM) and tyrosinase (400 U/mL) (Sigma-Aldrich, St. Louis, MO, USA) were prepared in PBS buffer (pH 7.4) (Qingdao Hope Bio-Technology Co., Ltd., Qingdao, China). A reaction mixture was prepared by combining 240 μL of carboxylic acid at various concentrations, 360 μL of L-DOPA solution, and 120 μL of tyrosinase. […] Deionized water was used as the control.

A further data set deals with B16-F10 cells. The experiment in a line: Melanin content analysis of B16-F10 cells (α-MSH stimulated). As to conditions: Mus musculus; 6 mM, B16-F10, α-MSH 1 μM, 48 h; read-out: melanin inhibition rate. It counts as cell-based. The protocol:
A 900 μL cell suspension with an approximate density of 50% confluence was seeded into a 12-well plate and cultured for 24 h at 37 °C with 5% CO2. Subsequently, various concentrations of carboxylic acids were added, and the cells were further incubated for 1 h. Then, 1 μL of 1 mM α-melanocyte-stimulating hormone (α-MSH) solution was added to achieve a final concentration of 1 μM, and the cells were cultured for an additional 48 h at 37 °C with 5% CO2 to stimulate melanogenesis. Afterward, the cells were digested with trypsin, collected by centrifugation at 10,000 rpm for 5 min (Andreas Hettich GmbH & Co., KG, Tuttlingen, Germany), and the supernatant was discarded. Each tube was treated with 200 μL of 1 M NaOH solution and incubated in a water bath at 60 °C for 20 min. Following incubation, the samples were vortexed to ensure homogeneity, and 200 μL of each sample was transferred to a 96-well plate. The absorbance at 405 nm (OD405) was measured using a microplate reader (Infinite 200Pro, Tecan), and the data were recorded to calculate the melanin content, with deionized water serving as the control. The reduction in melanin content was calculated with Equation (3):(3) [(OD405 of control−OD405 of sample)/OD405 of control]×100%

Data set [3] can be described thus: L-DOPA auto-oxidation analysis. As to conditions: for IC50: 37 °C, 12 h, calculated using SPSS, read-out: IC50 for L-DOPA auto-oxidation inhibition. The protocol:
A 5 mM L-DOPA solution was prepared in PBS buffer (pH 7.4). Subsequently, 240 μL of carboxylic acid solution, 360 μL of L-DOPA solution, and 120 μL of PBS buffer were sequentially mixed. The mixture was then incubated at 37 °C for 12 h. […] Deionized water was used as the control. The inhibition of L-DOPA auto-oxidation was calculated using the same method as the melanin content analysis.

The target in data set [4] is T1, tyrosinase. The data set can be described thus: Kinetic analysis of tyrosinase (Lineweaver–Burk). The data set is classed as biochemical, mushroom. The note with it: for Ki: GraphPad Prism, mixed-model or competitive model, read-out: inhibition constant (Ki); for inhibition mechanism: Lineweaver–Burk double-reciprocal plots; for inhibition constant (KIS) for enzyme–substrate complex: mixed-type inhibitors. The protocol:
L-DOPA solutions at various concentrations (0.5, 1, 2, and 4 mM) were prepared in PBS buffer (pH 7.4) and mixed with carboxylic acids at different concentrations and tyrosinase (final concentration of 60 U/mL). […] The reaction rates were calculated based on the OD values. To analyze the inhibition types of the four carboxylic acids on tyrosinase, double-reciprocal Lineweaver–Burk plots were constructed with 1/v (reaction rate) as the y-axis and 1/[S] (substrate concentration) as the x-axis. The maximum reaction velocity (Vmax) and Michaelis constant (Km) were determined using GraphPad Prism 10 (GraphPad Software, Massachusetts, USA).

Data set [5] is described as follows: pH of carboxylic acid mixed with PBS buffer, without tyrosinase. It counts as physicochemical. As to conditions: in PBS buffer, absence of tyrosinase.
In another data set the test system is rabbits and mice. As to conditions: in vivo; cited from earlier work.
Data set [6] concerns the target tyrosinase from BioVision, Inc. (claimed to be of human origin). On the set-up: method as in PMID 38909081. The note with it: cited from earlier work.

SMILES strings stand for the structures. Read-outs that look alike come from different tables or passages of the source.

mushroom tyrosinase, sequence (C7FF04 2-392): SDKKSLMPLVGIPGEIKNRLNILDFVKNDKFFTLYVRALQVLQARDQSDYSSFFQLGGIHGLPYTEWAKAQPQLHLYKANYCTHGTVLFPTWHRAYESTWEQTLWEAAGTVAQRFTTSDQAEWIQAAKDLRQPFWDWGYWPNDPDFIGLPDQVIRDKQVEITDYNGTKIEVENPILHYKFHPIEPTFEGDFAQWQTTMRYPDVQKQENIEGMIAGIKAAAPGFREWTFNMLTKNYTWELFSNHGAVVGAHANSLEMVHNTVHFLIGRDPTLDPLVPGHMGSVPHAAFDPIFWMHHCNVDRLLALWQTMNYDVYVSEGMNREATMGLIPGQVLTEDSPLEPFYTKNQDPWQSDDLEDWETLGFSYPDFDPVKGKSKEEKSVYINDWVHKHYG

Turning to `O=C(O)C(O)Cc1ccccc1` (centres unmarked) [3-phenyllactic acid], on tyrosinase [1], the “decrease of tyrosinase fluorescence intensity” value is recorded as 29.3%. Besides, in [2], the viability at 24 h, 6 mM is more than 90%. In addition, the inhibition at 6000 µM at mushroom tyrosinase (6 mM) was more than 80%. In addition, the inhibition at 6000 µM with B16-F10 cells was 27.2%. In addition, the “L-DOPA auto-oxidation inhibition rate” value in data set [3] (1.5 mM) is reported as “exceeding 80%”. Moreover, in data set [3], the IC50 is 630 µM. Further, on tyrosinase [4], the Ki was 1570 µM, the inhibition mechanism result was “mixed-type inhibition” and the “inhibition constant (KIS) for enzyme–substrate complex” value was 8.526 mM. In addition, in [5] (6 mM), the pH result is listed as “around 6”.

Turning to `O=C(O)CC(O)C(=O)O` (centres unmarked) [malic acid], the “decrease of tyrosinase fluorescence intensity” value on tyrosinase [1] turned out to be 29.0%. The compound further yielded a viability at 24 h, 6 mM in data set [2] of more than 90%. The “oral LD50” value in the data set on rabbits and mice was 1600 to 3200 mg/kg. In addition, the figures for the inhibition at 6000 µM on mushroom tyrosinase and with B16-F10 cells were more than 80% and 33.6%, respectively. Also, the half-inhibitory concentration (IC50) in data set [6] was 87.5 µM; in data set [3], 380 µM. For the same compound, in data set [3] (0.75 mM), the “L-DOPA auto-oxidation inhibition rate” value is listed as “exceeding 80%”. For the same compound, at tyrosinase [4], the inhibitory constant (Ki) was found to be 606 µM. Also, at tyrosinase [4], the inhibition mechanism result is listed as “mixed-type inhibition”. On tyrosinase [4], the “inhibition constant (KIS) for enzyme–substrate complex” value was found to be 3.066 mM. The pH in data set [5] (3 mM) is listed as 4.6; in data set [5] (6 mM), 3.5.
